Experimental data from US20200165257A1, “INHIBITORS OF PHOSPHOINOSITIDE 3-KINASE AND HISTONE DEACETYLASE FOR TREATMENT OF CANCER” (THE UNITED STATES OF AMERICA, AS REPRESENTED BY THE …, priority 2017, published 2020).
Where two headings read alike, the source gives them in different places.

Experiments:
[1] = test system: Breast Cancer Cell Line BT-549; assay: cells; format: cell-based; conditions: Homo sapiens
Leukemia Cell Line SR = assay: cells; format: cell-based; conditions: Homo sapiens, read-out: inhibition of proliferation
[2] = test system: Leukemia Cell Line RPMI-8226; format: cell-based; conditions: Homo sapiens
[3] = test system: Breast Cancer Cell Line MDA-MB-468; assay: cells; conditions: Homo sapiens, MDA-MB-468, read-out: inhibition of proliferation
[4] = test system: Ovarian Cell Line OVCAR-3; assay: cells; conditions: Homo sapiens, OVCAR-3, read-out: inhibition of proliferation
[5] = test system: Leukemia Cell Line CCRF-CEM; assay: cells; format: cell-based; conditions: Homo sapiens, read-out: inhibition of proliferation
Ovarian Cell Line IGROV1 = format: cell-based; conditions: Homo sapiens
HDAC6 = molecular target: T1, HDAC6 (Homo sapiens, UniProt Q9UBN7); assay: HDAC Fluorescent Activity Assay; format: biochemical; conditions: symbols ++ / +; read-out: HDAC6 Inhibition Activity (IC50 class)
T1 sequence (Q9UBN7 1-1215): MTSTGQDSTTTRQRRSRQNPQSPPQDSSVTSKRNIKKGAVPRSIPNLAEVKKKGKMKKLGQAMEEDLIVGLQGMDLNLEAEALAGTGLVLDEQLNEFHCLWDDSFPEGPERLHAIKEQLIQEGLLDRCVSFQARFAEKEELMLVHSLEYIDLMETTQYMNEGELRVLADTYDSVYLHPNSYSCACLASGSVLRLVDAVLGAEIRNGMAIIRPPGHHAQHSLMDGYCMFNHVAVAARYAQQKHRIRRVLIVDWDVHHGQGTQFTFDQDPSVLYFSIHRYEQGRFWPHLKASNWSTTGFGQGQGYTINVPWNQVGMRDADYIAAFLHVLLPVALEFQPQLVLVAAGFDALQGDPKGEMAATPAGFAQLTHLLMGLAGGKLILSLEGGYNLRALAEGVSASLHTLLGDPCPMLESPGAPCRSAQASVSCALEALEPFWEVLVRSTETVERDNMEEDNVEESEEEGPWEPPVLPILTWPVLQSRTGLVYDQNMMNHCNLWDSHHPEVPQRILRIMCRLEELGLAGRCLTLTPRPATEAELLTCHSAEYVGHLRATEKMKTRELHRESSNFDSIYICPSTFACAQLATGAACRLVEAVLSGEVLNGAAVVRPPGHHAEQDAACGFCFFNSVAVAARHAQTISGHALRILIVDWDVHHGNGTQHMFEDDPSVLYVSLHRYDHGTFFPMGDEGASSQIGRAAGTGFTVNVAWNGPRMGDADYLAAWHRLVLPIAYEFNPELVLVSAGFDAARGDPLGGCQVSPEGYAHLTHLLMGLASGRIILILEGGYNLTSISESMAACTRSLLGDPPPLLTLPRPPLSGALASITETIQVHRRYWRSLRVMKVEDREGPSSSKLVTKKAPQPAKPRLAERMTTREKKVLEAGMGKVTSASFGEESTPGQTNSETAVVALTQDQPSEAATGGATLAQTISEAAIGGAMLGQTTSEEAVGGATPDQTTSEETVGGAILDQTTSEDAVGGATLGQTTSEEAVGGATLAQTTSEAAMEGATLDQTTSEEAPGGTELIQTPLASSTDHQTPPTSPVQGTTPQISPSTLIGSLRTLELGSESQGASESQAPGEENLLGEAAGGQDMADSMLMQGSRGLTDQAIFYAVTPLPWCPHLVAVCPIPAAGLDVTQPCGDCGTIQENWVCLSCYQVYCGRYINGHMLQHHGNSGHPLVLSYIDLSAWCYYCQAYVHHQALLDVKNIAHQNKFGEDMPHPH
Protocol: This protocol is to determine the IC50s or percentage of inhibition values of the test compound against HDACs.
The HDAC Fluorescent Activity Assay is based on the unique Fluorogenic Substrate and Developer combination. […] First, the Fluorogenic Substrate, which comprises an acetylated lysine side chain, is incubated with a purified HDAC enzyme. Deacetylation of the substrate sensitizes the substrate so that, in the second step, treatment with the Developer produces a fluorophore.
Testing compounds were dissolved in 100% DMSO to specific concentration. […]
1. Deliver 2× enzyme in wells of reaction plate except No Enzyme control wells. Add buffer in No En wells.
2. Deliver compounds in 100% DMSO into the enzyme mixture by Acoustic technology (Echo550; nanoliter range). Spin down and pre-incubation.
3. Deliver 2× Substrate Mixture (Fluorogenic HDAC Substrate and co-factor if applicable) in all reaction wells to initiate the reaction. Spin and shake.
4. Incubate for 1-2 hr at 30° C. with seal.
5. Add Developer with Trichostatin A (or TMP269) to stop the reaction and to generate fluorescent color.
6. Fluorescence was read (excitatory, 360; emission, 460) using the EnVision Multilabel
7. Take endpoint reading for analysis after the development reaches plateau.
The percentages of enzyme activity (relative to DMSO controls) and IC50 values were calculated using the GraphPad Prism 4 program based on a sigmoidal dose-response equation.

[6] = test system: Leukemia Cell Line HL-60(TB); format: cell-based; conditions: Homo sapiens
[7] = test system: Breast Cancer Cell Line HS 578T; format: cell-based; conditions: Homo sapiens, read-out: inhibition of proliferation
[8] = test system: Ovarian Cell Line NCI/ADR-RES; assay: cells; format: cell-based; conditions: Homo sapiens, read-out: inhibition of proliferation
Leukemia Cell Line K-562 = format: cell-based; conditions: Homo sapiens
[9] = test system: Ovarian Cell Line OVCAR-8; assay: cells; format: cell-based; conditions: Homo sapiens
[10] = test system: Melanoma Cell Line UACC-62; assay: cells; format: cell-based; conditions: Homo sapiens
[11] = test system: Leukemia Cell Line MOLT-4; format: cell-based; conditions: Homo sapiens
[12] = single dose, 10 uM compound concentration
[13] = BT-549, read-out: inhibition of proliferation
[14] = RPMI-8226, read-out: inhibition of proliferation
[15] = IGROV-1, read-out: inhibition of proliferation
[16] = HL-60, read-out: inhibition of proliferation
[17] = OVCAR-8, read-out: inhibition of proliferation
[18] = UACC-62, read-out: inhibition of proliferation
[19] = MOLT-4, read-out: inhibition of proliferation

Row | SMILES | inhibition at 10 µM [3] [%] | inhibition at 10 µM [4] [%] | inhibition at 10 µM [1, 13] [%] | inhibition at 10 µM [2, 14] [%] | inhibition at 10 µM [5] [%] | inhibition at 10 µM (Ovarian Cell Line IGROV1; [15]) [%] | inhibition at 10 µM [6, 16] [%] | inhibition at 10 µM ([7]; Hs-578T) [%] | inhibition at 10 µM [8] [%] | inhibition at 10 µM [9, 17] [%] | inhibition at 10 µM [10, 18] [%] | inhibition at 10 µM [11, 19] [%] | further results
1 | Cc1nc2cccc(NCc3ccc(C(=O)NO)cc3)c2c(=O)n1-c1ccccc1 [Compound LX, N-hydroxy-4-(((2-methyl-4-oxo-3-phenyl-3,4-dihydroquinazolin-5-yl)amino)methyl)benzamide] | > 50 | > 50 |  |  |  |  |  |  |  |  |  |  | inhibition at 10 µM ([1]; BT-549, single dose, 10 uM compound concentration, read-out: inhibition of proliferation): 25 to 50%; inhibition at 10 µM (Leukemia Cell Line SR; SR, single dose, 10 uM compound concentration): > 50%; inhibition at 10 µM ([2]; RPMI-8226, single dose, 10 uM compound concentration, read-out: inhibition of proliferation): > 50%; inhibition at 10 µM [5, 12]: > 50%; inhibition at 10 µM (Ovarian Cell Line IGROV1; IGROV-1, IGROV1, single dose, 10 uM compound concentration, read-out: inhibition of proliferation): > 50%; IC50 (HDAC6): < 100 nM; inhibition at 10 µM ([6]; HL-60(TB), single dose, 10 uM compound concentration, read-out: inhibition of proliferation): > 50%; inhibition at 10 µM ([7]; HS 578T, single dose, 10 uM compound concentration): 25 to 50%; inhibition at 10 µM [8, 12]: > 50%; inhibition at 10 µM (Leukemia Cell Line K-562; K562, K-562, single dose, 10 uM compound concentration, read-out: inhibition of proliferation): > 50%; inhibition at 10 µM ([9]; OVCAR-8, single dose, 10 uM compound concentration, read-out: inhibition of proliferation): > 50%; inhibition at 10 µM ([10]; UACC-62, single dose, 10 uM compound concentration, read-out: inhibition of proliferation): > 50%; inhibition at 10 µM ([11]; MOLT-4, single dose, 10 uM compound concentration, read-out: inhibition of proliferation): > 50%
2 | CC[C@H](Nc1nc(N)nc(C)c1C#N)c1nc2cccc(NCc3ccc(C(=O)NO)cc3)c2c(=O)n1-c1ccccc1 [Compound XL, (S)-4-(((2-(1-((2-amino-5-cyano-6-methylpyrimidin-4-yl)amino)propyl)-4-oxo-3-phenyl-3,4-dihydroquinazolin-5-yl)amino)methyl)-N-hydroxybenzamide] | > 50 | > 50 | > 50 | > 50 | > 50 | > 50 | > 50 | > 50 | 25 to 50 | > 50 | > 50 | > 50 | 
3 | CC[C@H](Nc1ncnc2[nH]cnc12)c1nc2cccc(NCc3ccc(C(=O)NO)nc3)c2c(=O)n1-c1ccccc1 [V, (S)-5-(((2-(1-((9H-purin-6-yl)amino)propyl)-4-oxo-3-phenyl-3,4-dihydroquinazolin-5-yl)amino)methyl)-N-hydroxypicolinamide] |  |  | > 50 | > 50 | > 50 | 25 to 50 | > 50 | > 50 | 25 to 50 |  | > 50 | > 50 | inhibition at 10 µM (Leukemia Cell Line SR): > 50%; inhibition at 10 µM (Leukemia Cell Line K-562; K562, read-out: inhibition of proliferation): > 50%
4 | CC[C@H](Nc1cc(C)nc(N)n1)c1nc2cccc(NCc3ccc(C(=O)NO)cc3)c2c(=O)n1-c1ccccc1 [XLI, (S)-4-(((2-(1-((2-amino-6-methylpyrimidin-4-yl)amino)propyl)-4-oxo-3-phenyl-3,4-dihydroquinazolin-5-yl)amino)methyl)-N-hydroxybenzamide] | > 50 | > 50 | > 50 | > 50 | > 50 | > 50 | > 50 | > 50 |  | > 50 | > 50 | > 50 | 
